Experimental data: patent US6417202B1, “Pyridylpyrrole compounds useful as interleukin-and TNF antagonists” (Pfizer Inc., priority 1996, dated 2002)

Compound	melting point
CC(=O)c1c(-c2ccco2)[nH]c(-c2ccncc2)c1C [Example 69, 3-Acetyl-2-(2-furyl)-4-methyl-5-(4-pyridyl)-1H-pyrrole]	218 to 220 °C
CC(=O)c1c(-c2ccsc2)[nH]c(-c2ccncc2)c1C [Example 70, 3-Acetyl-4-methyl-5-(4-pyridyl)-2-(3-thienyl)-1H-pyrrole]	240 to 244 °C
CSc1ccc(-c2[nH]c(-c3ccncc3)c(C)c2C(C)=O)cc1 [Example 71, 3-Acetyl-4-methyl-2-(4-methylthiophenyl)-5-(4-pyridyl)-1H-pyrrole]	169 to 172 °C
CC(=O)c1c(-c2ccc(C(F)(F)F)cc2)[nH]c(-c2ccncc2)c1C [Example 73, 3-Acetyl-4-methyl-5-(4-pyridyl)-2-(4-trifluoromethylphenyl)-1H-pyrrole]	178.5 to 179.5 °C
CC(=O)c1c(-c2ccc([S+](C)[O-])cc2)[nH]c(-c2ccncc2)c1C (centres unmarked) [Example 75, 3-Acetyl-4-methyl-2-(4-methylsulfinylphenyl)-5-(4-pyridyl)-1H-pyrrole]	249 to 250 °C
CC(=O)c1c(N2CCN(c3ccccc3)CC2)[nH]c(-c2ccncc2)c1C [Example 78, 3-Acetyl-4-methyl-2-(4-phenylpiperazin-1-yl)-5-(4-pyridyl)-1H-pyrrole]	218 to 220 °C
CC(=O)c1c(N2C[C@@H](C)O[C@@H](C)C2)[nH]c(-c2ccncc2)c1C [Example 80, 3-Acetyl-2-(cis-2,6-dimethylmorpholin-4-yl)-4-methyl-5-(4-pyridyl)-1H-pyrrole]	95 to 100 °C
CC(=O)c1c(N2CCN(c3ccccn3)CC2)[nH]c(-c2ccncc2)c1C [Example 81, 3-Acetyl-4-methyl-5-(4-pyridyl)-2-{4-(2-pyridyl)piperazin-1-yl}-1H-pyrrole]	89 to 92 °C
Cc1c(-c2ccncc2)[nH]c2c1C(=O)C(C)(C)CC2 [Example 82 (3,5,5-trimethyl), 4-Oxo-2-(4-pyridyl)-3,5,5-trimethyl-4,5,6,7-tetrahydro-1H-indole]	237 to 239 °C
Cc1c(-c2ccncc2)[nH]c2c1C(=O)CCC2(C)C [Example 82 (3,7,7-trimethyl), 4-Oxo-2-(4-pyridyl)-3,7,7-trimethyl-4,5,6,7-tetrahydro-1H-indole]	278 to 280 °C
CC(=O)c1c([N+](=O)[O-])[nH]c(-c2ccncc2)c1C [Example 84, 3-Acetyl-4-methyl-2-nitro-5-(4-pyridyl)-1H-pyrrole]	187 to 188 °C
Cc1c(-c2ccncc2)[nH]c2c1C(=O)CC(C)C2 (centres unmarked) [Example 86, 3,6-Dimethyl-4-oxo-2-(4-pyridyl)-4,5,6,7-tetrahydro-1H-indole]	247 to 248 °C
Cc1c(-c2ccncc2)[nH]c2c1C(=O)CSC2 [Example 87, 3-Methyl-4-oxo-2-(4-pyridyl)-6-thia-4,5,6,7-tetrahydro-1H-indole]	209 to 210 °C
CC(=O)c1c(C=O)[nH]c(-c2ccncc2)c1C [Example 88, 3Acetyl-2-formyl-4-methyl-5-(4-pyridyl)-1H-pyrrole]	208 to 209 °C
CC(=O)c1c(CO)[nH]c(-c2ccncc2)c1C [Example 89, 3-Acetyl-2-hydroxymethyl-4-methyl-5-(4-pyridyl)-1H-pyrrole]	163 to 165 °C
Cc1c(-c2ccncc2)[nH]c(-c2ccncc2)c1C(=O)CC(C)C [Example 90, 4-Methyl-3-(3-methylbutanoyl)-2,5-di(4-pyridyl)-1H-pyrrole]	199 to 201 °C
COC(=O)c1c(-c2ccccc2)[nH]c(-c2ccncc2)c1C [Example 91, Methyl 4-Methyl-2-phenyl-5-(4-pyridyl)pyrrole-3-carboxylate]	202 to 204 °C
